Patent US20230330178A1, “USE OF POLYPEPTIDE IN DRUG FOR PREVENTING AND TREATING PNEUMONIA” (priority 2020, published 2023)
Read-outs that look alike come from different tables or passages of the source.

Columns and labels:
[1] = tested on: models of pneumonia in rats induced by mixed bacteria solution of Staphylococcus aureus, Streptococcus pneumoniae, and Escherichia coli; assay: Lung function test in rat pneumonia model induced by mixed bacteria; type: in vivo, SD rats
Description: (§1) Bacterial pneumonia is the most common pneumonia, is also one of the most common infectious diseases, and is caused by bacterial infection. Main pathogenic bacteria of the bacterial pneumonia include Streptococcus pneumoniae, Staphylococcus aureus, Escherichia coli, and the like, which pose a great threat to the health of children and the elderly. In this experiment, a mixed bacteria solution of Staphylococcus aureus, Streptococcus pneumoniae, and Escherichia coli was instilled into the trachea to induce models of pneumonia in rats. Pharmacodynamic effects of a peptide on pneumonia were evaluated by observing effects of the peptide inhaled through the nose and mouth on the models of pneumonia caused by mixed bacteria infection.
(§2) 80 SD rats, SPF grade, half male and half female, were selected and randomly divided into 8 groups according to sex and body weight, including 6 rats in each of a blank control group and a model evaluation group, 8 rats in a blank administration group, and 12 rats in each of a model control group, an erythromycin group, a budesonide group, a low-dose polypeptide treatment group, and a high-dose polypeptide treatment group.
(§3) Animals in the blank administration group were not modeled, and inhaled a high-concentration polypeptide aerosol (0.48 mg/L) through nose and mouth every day. Animals in the blank control group were instilled with a 0.5 mL 0.9% sodium chloride injection through trachea. After the remaining groups were slightly anesthetized with ether, the model control group, the erythromycin group, the budesonide group, the low-dose polypeptide treatment group, and the high-dose polypeptide treatment group were instilled with a 1×10^8 CFU/mL mixed bacteria solution of Staphylococcus aureus, Streptococcus pneumoniae, and Escherichia coli through trachea, 0.5 mL/rat, respectively, and the blank control group was instilled with a 0.9% sodium chloride injection of a same volume.
(§4) A specific modeling method was as follows: a rat was anesthetized by ether inhalation and lied on an anatomical plate at an angle of 30-45°, trachea of the rat was exposed under an otoscope, a long puncture needle was connected to a 1 mL syringe and inserted into the trachea, each rat was injected with 0.5 mL of mixed bacteria, the puncture needle was pulled out after the injection, the rat was still kept at the original tilt position for about 10 min, and the bacteria solution flowed into bronchus and alveoli due to gravity to cause infection, so as to induce a rat pneumonia model.
(§5) Each group was administrated for the first time at 2 h after modeling. After the experiment begun, 7.16 mg/mL and 71.6 mg/mL peptide solutions were atomized into aerosol particles with target concentrations of 0.07 and 0.48 mg/L every day, and the animals in the low-dose peptide treatment group and the high-dose peptide treatment group (0.54 mg/kg and 3.7 mg/kg, corresponding to drug concentrations 0.07 and 0.48 mg/L respectively) inhaled the aerosol particles with corresponding concentrations through mouth and nose respectively for 7 consecutive days, 10 min/time, 3 times a day; the blank administration group (cumulative dose 22.2 mg/kg, corresponding to a drug concentration 0.48 mg/L) inhaled 0.48 mg/L peptide aerosol particles through mouth and nose every day for 7 consecutive days, 20 min/time, 3 times a day; the blank control group and the model control group inhaled a 0.9% sodium chloride solution for the same time according to the same method; the erythromycin group and the budesonide group were administrated with a 5 mg/mL erythromycin solution and a 0.05 mg/mL budesonide suspension respectively for the same time according to the same method; and body weight of each group was tested every day.

Streptococcus pneumoniae = assay: animal or person; type: in vivo; details: for Number of streptococcus pneumoniae: lung tissue of pneumonia model rats; for inhibition at 5000 µg/mL, 18 mg/kg / inhibition at 50 µg/mL: Streptococcus pneumoniae, in Rattus norvegicus, inhaled or nasal, vs model control group
Description: as §3, §4, §5
(§6) Except the blank administration group, half animals of the remaining groups were randomly selected for lung function test, gross anatomy examination, and pathological test on D4 day, and lungs of 3 animals in each group were selected for bacteria culture and counting; and on D8 day, the remaining animals were subjected to lung function test, gross anatomy examination, and pathological test, and lungs of 3 animals in each group were selected for bacteria culture and counting (the blank control group and the blank administration group were not examined).
(§7) Experimental steps of bacteria culture: except the blank administration group, six animals were randomly selected from each of the remaining groups (three animals were randomly selected from the first and last anatomies), left middle lobe lung tissues were taken, washed with 0.9% sodium chloride injection, added with double weight of 0.9% sodium chloride injection, and ground into homogenate, the homogenate was inoculated into a meat extract agar medium and cultured at 37° C. for 16 to 18 h, bacteria were isolated, and each isolated bacteria suspension was diluted to 10^−1, 10^−2, 10^−3, 10^−4, 10^−5, 10^−6, 10^−7 and 10^−8 according to 10 times gradient, namely, 9 mL normal saline plus 1 mL bacteria suspension was 10^−1, and so on. […]

Staphylococcus aureus = assay: animal or person; type: in vivo; details: for Number of staphylococcus aureus: lung tissue of pneumonia model rats; for inhibition at 5000 µg/mL, 18 mg/kg / inhibition at 50 µg/mL: Staphylococcus aureus, in Rattus norvegicus, inhaled or nasal, vs model control group
Description: as §3, §4, §5, §6, §7

Escherichia coli = assay: animal or person; type: in vivo; details: for Number of escherichia coli: lung tissue of pneumonia model rats; for inhibition at 5000 µg/mL, 18 mg/kg / inhibition at 50 µg/mL: Escherichia coli, in Rattus norvegicus, inhaled or nasal, vs model control group
Description: as §3, §4, §5, §6, §7

[2] = tested on: models of pneumonia in rats induced by mixed bacteria solution of Staphylococcus aureus, Streptococcus pneumoniae, and Escherichia coli; assay: Arterial blood gas in rat pneumonia model induced by mixed bacteria; type: in vivo, SD rats; details: for PaCO2: partial pressure of carbon dioxide / PaO2: partial pressure of oxygen / arterial blood pH: pneumonia model rats
Description: as §1, §2, §3, §4
as §5, with “day. […]” for “day.”

[3] = tested on: models of pneumonia in rats induced by mixed bacteria solution of Staphylococcus aureus, Streptococcus pneumoniae, and Escherichia coli; assay: Pathological test of lung tissue (HE) in rat pneumonia model; type: in vivo, SD rats; details: erythromycin 5 mg/mL solution (18 mg/kg) inhaled
Description: as §1, §2
Animals in the blank administration group were not modeled, and inhaled a high-concentration polypeptide aerosol (0.48 mg/L) through nose and mouth every day. […]

[4] = D4, erythromycin 5 mg/mL solution (18 mg/kg) inhaled
[5] = D8, erythromycin 5 mg/mL solution (18 mg/kg) inhaled
[6] = D4, budesonide 0.05 mg/mL suspension (0.18 mg/kg) inhaled
[7] = D8, budesonide 0.05 mg/mL suspension (0.18 mg/kg) inhaled

SMILES: CC[C@H]1OC(=O)[C@H](C)[C@@H](O[C@H]2C[C@@](C)(OC)[C@@H](O)[C@H](C)O2)[C@H](C)[C@@H](O[C@@H]2O[C@H](C)C[C@H](N(C)C)[C@H]2O)[C@](C)(O)C[C@@H](C)C(=O)[C@H](C)[C@@H](O)[C@]1(C)O [Erythromycin, erythromycin]
- FEV200 (forced expiratory volume) [1, 4]: 2.84 ± 0.54 mL
- FEV200/FVC [1, 4]: 90.65 ± 4.78 %
- FVC: forced vital capacity [1, 4]: 3.12 ± 0.52 mL
- VT: tidal volume [1, 4]: 1.59 ± 0.39 mL
- f: respiratory rate [1, 4]: 132 ± 27 time/min
- FEV200 (forced expiratory volume) [1, 5]: 3.40 ± 0.12 mL
- FEV200/FVC [1, 5]: 92.36 ± 2.94 %
- FVC: forced vital capacity [1, 5]: 3.68 ± 0.20 mL
- VT: tidal volume [1, 5]: 1.67 ± 0.24 mL
- f: respiratory rate [1, 5]: 130 ± 25 time/min
- Number of streptococcus pneumoniae (Streptococcus pneumoniae; [4]): 1223 ± 287 CFU/mL
- Number of streptococcus pneumoniae (Streptococcus pneumoniae; [5]): 67 ± 15 CFU/mL
- inhibition at 5000 µg/mL, 18 mg/kg (Streptococcus pneumoniae; read-out: Inhibition rate of streptococcus pneumoniae, D4, erythromycin 5 mg/mL solution (18 mg/kg) inhaled): 74.1%
- inhibition at 5000 µg/mL, 18 mg/kg (Streptococcus pneumoniae; read-out: Inhibition rate of streptococcus pneumoniae, D8, erythromycin 5 mg/mL solution (18 mg/kg) inhaled): 95.8%
- Number of staphylococcus aureus (Staphylococcus aureus; [4]): 633 ± 146 CFU/mL
- Number of staphylococcus aureus (Staphylococcus aureus; [5]): 113 ± 31 CFU/mL
- inhibition at 5000 µg/mL, 18 mg/kg (Staphylococcus aureus; read-out: Inhibition rate of staphylococcus aureus, D4, erythromycin 5 mg/mL solution (18 mg/kg) inhaled): 87.4%
- inhibition at 5000 µg/mL, 18 mg/kg (Staphylococcus aureus; read-out: Inhibition rate of staphylococcus aureus, D8, erythromycin 5 mg/mL solution (18 mg/kg) inhaled): 96.7%
- Number of escherichia coli (Escherichia coli; [4]): 447 ± 146 CFU/mL
- Number of escherichia coli (Escherichia coli; [5]): 80 ± 2 CFU/mL
- inhibition at 5000 µg/mL, 18 mg/kg (Escherichia coli; read-out: Inhibition rate of escherichia coli, D4, erythromycin 5 mg/mL solution (18 mg/kg) inhaled): 85.6%
- inhibition at 5000 µg/mL, 18 mg/kg (Escherichia coli; read-out: Inhibition rate of escherichia coli, D8, erythromycin 5 mg/mL solution (18 mg/kg) inhaled): 91.7%
- PaCO2: partial pressure of carbon dioxide [2, 4]: 50.38 ± 6.60 mmHg
- PaO2: partial pressure of oxygen [2, 4]: 69.68 ± 15.16 mmHg
- arterial blood pH [2, 4]: 7.33 ± 0.05
- PaO2 increase vs model control group ([2]; D8, erythromycin group (18 mg/kg), no statistical difference): 37.17%
- PaCO2: partial pressure of carbon dioxide [2, 5]: 39.37 ± 5.60 mmHg
- PaO2: partial pressure of oxygen [2, 5]: 71.08 ± 14.74 mmHg
- arterial blood pH [2, 5]: 7.42 ± 0.04
- pathological changes of lungs compared with the model control group ([3]; D4): significantly alleviated
- lung tissue lesions ([3]; D8): tended to normal

SMILES: CCCC1O[C@@H]2C[C@H]3[C@@H]4CCC5=CC(=O)C=C[C@]5(C)[C@H]4[C@@H](O)C[C@]3(C)[C@]2(C(=O)CO)O1 (some centres unmarked) [Budesonide, budesonide]
- FEV200 (forced expiratory volume) [1, 6]: 2.72 ± 0.72 mL
- FEV200/FVC [1, 6]: 85.78 ± 8.00%
- FVC: forced vital capacity [1, 6]: 3.13 ± 0.59 mL
- VT: tidal volume [1, 6]: 1.86 ± 0.69 mL
- f: respiratory rate [1, 6]: 130 ± 39 time/min
- FEV200 (forced expiratory volume) [1, 7]: 3.43 ± 0.69 mL
- FEV200/FVC [1, 7]: 89.77 ± 4.58%
- FVC: forced vital capacity [1, 7]: 3.80 ± 0.65 mL
- VT: tidal volume [1, 7]: 1.63 ± 0.27 mL
- f: respiratory rate [1, 7]: 126 ± 11 time/min
- Number of streptococcus pneumoniae (Streptococcus pneumoniae; [6]): 1810 ± 957 CFU/mL
- Number of streptococcus pneumoniae (Streptococcus pneumoniae; [7]): 433 ± 276 CFU/mL
- inhibition at 50 µg/mL (Streptococcus pneumoniae; read-out: Inhibition rate of streptococcus pneumoniae, D4, budesonide 0.05 mg/mL suspension (0.18 mg/kg) inhaled): 61.7%
- inhibition at 50 µg/mL (Streptococcus pneumoniae; read-out: Inhibition rate of streptococcus pneumoniae, D8, budesonide 0.05 mg/mL suspension (0.18 mg/kg) inhaled): 72.7%
- Number of staphylococcus aureus (Staphylococcus aureus; [6]): 2577 ± 655 CFU/mL
- Number of staphylococcus aureus (Staphylococcus aureus; [7]): 560 ± 269 CFU/mL
- inhibition at 50 µg/mL (Staphylococcus aureus; read-out: Inhibition rate of staphylococcus aureus, D4, budesonide 0.05 mg/mL suspension (0.18 mg/kg) inhaled): 48.7%
- inhibition at 50 µg/mL (Staphylococcus aureus; read-out: Inhibition rate of staphylococcus aureus, D8, budesonide 0.05 mg/mL suspension (0.18 mg/kg) inhaled): 83.4%
- Number of escherichia coli (Escherichia coli; [6]): 3737 ± 1115 CFU/mL
- Number of escherichia coli (Escherichia coli; [7]): 890 ± 409 CFU/mL
- inhibition at 50 µg/mL (Escherichia coli; read-out: Inhibition rate of escherichia coli, D4, budesonide 0.05 mg/mL suspension (0.18 mg/kg) inhaled): -20.6%
- inhibition at 50 µg/mL (Escherichia coli; read-out: Inhibition rate of escherichia coli, D8, budesonide 0.05 mg/mL suspension (0.18 mg/kg) inhaled): 7.58%
- PaCO2: partial pressure of carbon dioxide [2, 6]: 52.87 ± 13.34 mmHg
- PaO2: partial pressure of oxygen [2, 6]: 75.73 ± 30.92 mmHg
- arterial blood pH [2, 6]: 7.31 ± 0.07
- PaCO2: partial pressure of carbon dioxide [2, 7]: 34.35 ± 8.17 mmHg
- PaO2: partial pressure of oxygen [2, 7]: 86.67 ± 24.78 mmHg
- arterial blood pH [2, 7]: 7.45 ± 0.06
